Data taken from patent US20090100532A1, “TRANSGENIC MICE EXPRESSING HYPERSENSITIVE NICOTINIC RECEPTORS” (CALIFORNIA INSTITUTE OF TECHNOLOGY, priority 2007, published 2009).
“And” between values parts separate entries of the source, which are not always exact repeats. Equal entries are not always repeated. Where two headings read alike, the source gives them in different places.

Assays:
α6^L9′S mice = details: mouse, in vivo
Procedure: (§1) Locomotor Activity. Mice used to study locomotion were eight to sixteen weeks old by the beginning of an experiment, and were back-crossed to C57BL/6 at least three times. […] Mouse horizontal locomotor activity was measured with an infrared photobeam activity cage system (San Diego Instruments; San Diego, Calif.). Ambulation events were recorded when two contiguous photobeams were broken in succession. Acute locomotor activity in response to nicotinic ligands or other agents was studied by recording ambulation events during four 15 sec intervals per minute for a designated number of minutes. For most experiments, groups of eight mice were placed in the activity cages (18×28 cm) and their baseline level of activity was recorded for eight minutes. Mice were removed from their cage, injected (100 μl per 25 g body mass), and returned to the cage within 15 sec. […] For generation of locomotor activity concentration-response relationship profiles, a group of mice was administered saline and, after five to eight days off, each successive dose of drug. […] For 48 h home cage monitoring, mice were isolated in their own cage and habituated to the test room and cage for 24 h. Following this, locomotor activity was recorded in 15 min intervals for 48 h.

WT mice = details: mouse, in vivo
Procedure: as §1

nAChRs = format: biochemical, mouse; details: for EC50: read-out: EC50 (±SEM), Total DA release
Procedure: (§2) Neurotransmitter Release from Striatal Synaptosomes. After a mouse was sacrificed by cervical dislocation, its brain was removed and placed immediately on an ice-cold platform and brain regions were dissected. Tissues from each mouse were homogenized in 0.5 ml of ice-cold 0.32 M sucrose buffered with 5 mM HEPES, pH 7.5. A crude synaptosomal pellet was prepared by centrifugation at 12,000 g for 20 min. The pellets were resuspended in “uptake buffer”: 128 mM NaCl, 2.4 mM KCl, 3.2 mM CaCl2, 1.2 mM KH2PO4, 1.2 mM MgSO4, 25 mM HEPES, pH 7.5, 10 mM glucose. For DA uptake, buffer was supplemented with 1 mM ascorbic acid and 0.01 mM pargyline, whereas for GABA uptake, buffer was supplemented with 1 mM aminooxyacetic acid. For [^3H]GABA uptake, synaptosomes were incubated for 10 min at 37° C. […] For DA uptake, synaptosomes were incubated at 37° C. in uptake buffer for 10 min before addition of 100 nM [^3H]dopamine (1 μCi for every 0.2 ml of synaptosomes), and the suspension was incubated for an additional 5 min.
(§3) All experiments were conducted at room temperature using methods described previously (Nashmi et al., 2007; Salminen et al., 2007) with modifications for collection into 96-well plates. In brief, aliquots of synaptosomes (80 μl) were distributed onto filters and perfused with buffer (uptake buffer containing 0.1% bovine serum albumin and 1 μM atropine with 1 μM nomifensine (for DA release) or 0.1 μM NNC-711 [1-(2-(((diphenylmethylene)amino)oxy)ethyl)-1,2,5,6-tetrahydro-3-pyridinecarboxylic acid hydrochloride]) (for GABA release) at 0.7 ml/min for 10 min, or buffer for 5 min followed by buffer with 50 nM αCtxMII. […] Fractions (−0.1 ml) were collected for 4 min into 96-well plates every 10 sec starting from 1 min before stimulation, using a Gilson FC204 fraction collector with a multicolumn adapter (Gilson, Inc.; Middleton, Wis.). Radioactivity was determined by scintillation counting using a 1450 MicroBeta Trilux scintillation counter (Perkin Elmer Life Sciences-Wallac Oy; Turku, Finland) after addition of 0.15 ml Optiphase ‘SuperMix’ scintillation cocktail. Instrument efficiency was 40%.
(§4) Data were analyzed using SigmaPlot 5.0 for DOS. Perfusion data were plotted as counts per minute versus fraction number. Fractions collected before and after the peak were used to calculate baseline as a single exponential decay. The calculated baseline was subtracted from the experimental data. Fractions that exceeded baseline by 10% or more were sunmmed to give total released cpm and then normalized to baseline to give units of release [(cpm-baseline)/baseline]. Agonist dose response data were fit to the Hill equation.

α4Yβ2 receptors = format: cell-based, mouse
α3β4 receptors = molecular target: T1, α3β4 receptors (UniProt P12392+P32297); test: Two-electrode voltage clamp, X. laevis oocytes, α3β4; format: cell-based
T1 construct: expressed in transfected cells; host or cells: Xenopus laevis oocytes injected with cRNA
Procedure: (§5) Two-Electrode Voltage-Clamp Electrophysiology. Stage V to VI X. laevis oocytes were isolated as described previously (Quick and Lester, Ion Channels of Excitable Cells, Narahashi T ed., pp 261-279, 1994). Stock RNAs were diluted into diethyl pyrocarbonatetreated water and injected 1 day after isolation. RNA was injected in a final volume of 50 nl per oocyte using a digital microdispenser (Drummond Scientific, Broomall, Pa.). After injection, oocytes were incubated in ND-96 solution (96 mM NaCl, 2 mM KCl, 1 mM CaCl2, 1 mM MgCl2, and 5 mM HEPES/NaOH, pH 7.6) supplemented with 50 μg/ml gentamicin and 2.5 mM sodium pyruvate. After 1 to 4 days for nAChR expression, oocytes were used for recording or confocal microscopy.
(§6) Agonist-activated nicotinic receptor responses were measured by two-electrode voltage-clamp recording using a GeneClamp 500 (Molecular Devices, Sunnyvale, Calif.) voltage clamp. Electrodes were constructed from Kwik-Fil borosilicate glass capillary tubes (1B150F-4; WPI, Sarasota, Fla.) using a programmable microelectrode puller (P-87; Sutter Instrument Company, Novato, Calif.). The electrodes had tip resistances of 0.8 to 2.0 MΩ after filling with 3 M KCl. […]

α3β4β3 receptors = molecular target: T2, α3β4β3 receptors (UniProt P12392+P32297); test: Two-electrode voltage clamp, X. laevis oocytes, α3β4β3; format: cell-based
T2 construct: expressed in transfected cells; host or cells: Xenopus laevis oocytes injected with cRNA
Procedure: as §5, §6

[1] = molecular target: tonically active α6^L9′S channels in VTA DA neurons (Mus musculus, UniProt Q9ERK7+Q9R0W9, L280S); format: cell-based
[2] = molecular target: hypersensitive nicotinic receptors in α6L9′S VTA DA neurons (Mus musculus, UniProt Q9ERK7+Q9R0W9, L280S); format: cell-based
[3] = tested on: striatal (ST and OT combined) synaptosomes
Procedure: as §2, §3, §4

α6* nAChRs [4] = molecular target: T3, α6* nAChRs (Mus musculus, UniProt Q9ERK7+Q9R0W9); test: biochemical; format: biochemical
T3 construct: from tissue
Procedure: as §2, §3, §4

α4β2* (non-α6) nAChRs = molecular target: T4, α4β2* (non-α6) nAChRs (Mus musculus, UniProt O70174+Q9ERK7); test: biochemical; format: biochemical; details: for EC50: read-out: EC50 (±SEM), MII-resistant DA release
T4 construct: from tissue; host or cells: striatal / olfactory tubercle synaptosomes of WT and α6L9′S mice
Procedure: as §2, §3, §4

α6* nAChRs [5] = molecular target: T5, α6* nAChRs (Mus musculus, UniProt Q9ERK7+Q9R0W9, L280S); test: biochemical; format: biochemical
T5 construct: from tissue
Procedure: as §2, §3, §4

N2a cells = test: TIRF imaging of actin-containing membrane protrusions in N2a cells; format: cell-based, mouse
Procedure: TIRF Microscopy. N2a cells cultured in glass-bottomed, polyethylenimine-coated imaging dishes were transfected with cDNA mixtures as described above. Cells, superfused with the same imaging solution used for confocal microscopy, were imaged 18 to 24 h after transfection to minimize overexpression artifacts. TIRF images were obtained with an inverted microscope (Olympus IX71; Olympus America, Inc., Center Valley, Pa.) equipped with a 488-nm air-cooled argon laser (P/N IMA111040ALS; Melles Griot, Carlsbad, Calif.). Laser output was controlled with a UNIBLITZ shutter system and drive unit (P/N VMM-D1; Vincent Associates, Rochester, N.Y.) equipped with a Mitutoyo (Mitutoyo America, City of Industry, CA) micrometer to control TIRF evanescent field illumination. TIRF imaging was carried out with an Olympus PlanApo 100×1.45 NA oil objective, and images were captured with a 16-bit resolution Photometrics Cascade charge-coupled device camera (Photometrics, Tucson, Ariz.) controlled by SlideBook 4.0 imaging software (Intelligent Imaging Innovations, Santa Monica, Calif.).

LC neurons (α6* nAChRs) = format: cell-based, mouse

T4 sequence (Q9ERK7 26-501): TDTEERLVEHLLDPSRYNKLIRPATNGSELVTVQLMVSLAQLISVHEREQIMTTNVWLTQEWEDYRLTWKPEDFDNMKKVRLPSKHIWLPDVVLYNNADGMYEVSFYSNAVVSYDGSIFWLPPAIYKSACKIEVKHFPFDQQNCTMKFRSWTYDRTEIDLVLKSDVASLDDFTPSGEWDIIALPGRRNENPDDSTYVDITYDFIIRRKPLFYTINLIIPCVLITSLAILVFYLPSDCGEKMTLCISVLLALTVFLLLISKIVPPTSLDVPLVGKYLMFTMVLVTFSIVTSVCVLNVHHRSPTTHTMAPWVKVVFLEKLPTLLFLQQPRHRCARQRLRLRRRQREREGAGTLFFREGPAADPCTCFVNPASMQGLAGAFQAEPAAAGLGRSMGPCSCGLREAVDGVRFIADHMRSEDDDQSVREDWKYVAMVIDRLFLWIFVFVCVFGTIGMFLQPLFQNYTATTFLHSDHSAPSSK
T4 sequence (O70174 31-629): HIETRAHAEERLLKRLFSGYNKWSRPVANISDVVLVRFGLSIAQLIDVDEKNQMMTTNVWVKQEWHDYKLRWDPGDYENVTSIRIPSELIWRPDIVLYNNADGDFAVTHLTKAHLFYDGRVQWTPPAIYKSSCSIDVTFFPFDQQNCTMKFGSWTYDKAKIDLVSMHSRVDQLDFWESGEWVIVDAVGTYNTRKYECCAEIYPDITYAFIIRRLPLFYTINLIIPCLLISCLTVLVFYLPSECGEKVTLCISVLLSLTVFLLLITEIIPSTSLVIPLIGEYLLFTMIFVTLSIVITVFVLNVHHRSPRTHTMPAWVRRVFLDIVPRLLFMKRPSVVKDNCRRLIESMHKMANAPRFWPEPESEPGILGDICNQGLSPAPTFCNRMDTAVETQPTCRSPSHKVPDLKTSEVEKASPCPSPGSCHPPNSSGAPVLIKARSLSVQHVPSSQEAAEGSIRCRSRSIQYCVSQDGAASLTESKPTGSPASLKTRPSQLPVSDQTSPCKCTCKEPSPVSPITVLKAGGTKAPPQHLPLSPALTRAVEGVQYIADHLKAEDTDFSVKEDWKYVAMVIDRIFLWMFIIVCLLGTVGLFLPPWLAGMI
T5 sequence (Q9ERK7 26-501, stated change not applied): as the sequence (Q9ERK7 26-501) above
T5 sequence (Q8BMN3 31-464, further chain): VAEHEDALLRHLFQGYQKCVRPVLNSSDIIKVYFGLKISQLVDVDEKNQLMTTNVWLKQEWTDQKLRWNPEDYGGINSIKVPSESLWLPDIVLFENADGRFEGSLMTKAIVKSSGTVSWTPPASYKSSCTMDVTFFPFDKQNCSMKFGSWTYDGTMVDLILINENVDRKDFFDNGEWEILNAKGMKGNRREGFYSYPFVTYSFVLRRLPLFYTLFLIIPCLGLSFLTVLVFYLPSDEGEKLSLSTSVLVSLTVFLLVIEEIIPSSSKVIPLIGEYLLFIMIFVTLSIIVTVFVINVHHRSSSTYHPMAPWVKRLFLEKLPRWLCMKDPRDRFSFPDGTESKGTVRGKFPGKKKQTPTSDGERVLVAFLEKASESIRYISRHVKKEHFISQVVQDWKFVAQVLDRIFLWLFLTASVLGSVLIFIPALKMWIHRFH
T5 sequence (Q9R0W9 31-494 L280S): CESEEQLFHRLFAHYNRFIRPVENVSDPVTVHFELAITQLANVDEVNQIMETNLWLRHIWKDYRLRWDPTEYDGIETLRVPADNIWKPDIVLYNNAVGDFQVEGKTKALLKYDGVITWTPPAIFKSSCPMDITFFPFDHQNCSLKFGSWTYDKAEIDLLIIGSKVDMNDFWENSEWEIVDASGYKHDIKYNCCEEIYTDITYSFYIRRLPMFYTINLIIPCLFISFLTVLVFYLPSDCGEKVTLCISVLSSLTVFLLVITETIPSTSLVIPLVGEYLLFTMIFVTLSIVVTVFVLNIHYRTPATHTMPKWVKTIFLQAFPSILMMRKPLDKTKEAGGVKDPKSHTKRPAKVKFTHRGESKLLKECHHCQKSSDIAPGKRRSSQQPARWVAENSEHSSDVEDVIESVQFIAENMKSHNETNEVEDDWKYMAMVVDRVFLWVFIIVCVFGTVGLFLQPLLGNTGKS
T3 sequence (Q9R0W9 31-494): as the sequence (Q9R0W9 31-494 L280S) above, with S250L counted along it
T3 sequence (Q8BMN3 31-464, further chain): as the sequence (Q8BMN3 31-464, further chain) above
T3 sequence (Q9ERK7 26-501): as the sequence (Q9ERK7 26-501) above
tonically active α6^L9′S channels in VTA DA neurons, sequence (Q9ERK7 whole entry, looked up, stated change not applied): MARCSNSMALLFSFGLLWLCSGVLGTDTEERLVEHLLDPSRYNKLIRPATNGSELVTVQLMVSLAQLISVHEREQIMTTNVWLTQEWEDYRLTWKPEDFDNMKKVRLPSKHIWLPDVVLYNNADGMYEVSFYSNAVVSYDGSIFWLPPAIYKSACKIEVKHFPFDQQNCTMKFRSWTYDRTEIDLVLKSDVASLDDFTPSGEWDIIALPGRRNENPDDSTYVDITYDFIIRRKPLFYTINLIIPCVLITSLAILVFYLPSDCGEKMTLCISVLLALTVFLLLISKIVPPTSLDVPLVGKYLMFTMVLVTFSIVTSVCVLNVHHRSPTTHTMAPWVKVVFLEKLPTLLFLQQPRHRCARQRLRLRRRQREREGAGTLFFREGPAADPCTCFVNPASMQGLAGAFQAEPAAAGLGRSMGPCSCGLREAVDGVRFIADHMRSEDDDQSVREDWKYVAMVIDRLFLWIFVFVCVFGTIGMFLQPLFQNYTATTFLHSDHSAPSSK
tonically active α6^L9′S channels in VTA DA neurons, sequence (Q9R0W9 whole entry, looked up, stated change not applied): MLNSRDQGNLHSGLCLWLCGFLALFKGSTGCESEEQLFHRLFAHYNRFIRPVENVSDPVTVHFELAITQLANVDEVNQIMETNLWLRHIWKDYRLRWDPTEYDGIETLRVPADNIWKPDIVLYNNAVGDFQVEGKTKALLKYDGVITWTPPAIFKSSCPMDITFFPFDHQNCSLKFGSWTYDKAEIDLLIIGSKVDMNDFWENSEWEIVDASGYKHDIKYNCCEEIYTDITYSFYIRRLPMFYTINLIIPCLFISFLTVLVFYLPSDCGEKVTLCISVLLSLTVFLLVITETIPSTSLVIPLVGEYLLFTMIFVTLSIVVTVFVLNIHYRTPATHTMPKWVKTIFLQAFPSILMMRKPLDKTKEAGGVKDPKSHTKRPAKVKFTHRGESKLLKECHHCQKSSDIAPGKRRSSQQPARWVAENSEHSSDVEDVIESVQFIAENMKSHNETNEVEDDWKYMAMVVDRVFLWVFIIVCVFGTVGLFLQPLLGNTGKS
hypersensitive nicotinic receptors in α6L9′S VTA DA neurons, sequence (Q9ERK7 whole entry, looked up, stated change not applied): as the sequence (Q9ERK7 whole entry, looked up, stated change not applied) above
hypersensitive nicotinic receptors in α6L9′S VTA DA neurons, sequence (Q9R0W9 whole entry, looked up, stated change not applied): as the sequence (Q9R0W9 whole entry, looked up, stated change not applied) above
T2 sequence (P32297 32-505): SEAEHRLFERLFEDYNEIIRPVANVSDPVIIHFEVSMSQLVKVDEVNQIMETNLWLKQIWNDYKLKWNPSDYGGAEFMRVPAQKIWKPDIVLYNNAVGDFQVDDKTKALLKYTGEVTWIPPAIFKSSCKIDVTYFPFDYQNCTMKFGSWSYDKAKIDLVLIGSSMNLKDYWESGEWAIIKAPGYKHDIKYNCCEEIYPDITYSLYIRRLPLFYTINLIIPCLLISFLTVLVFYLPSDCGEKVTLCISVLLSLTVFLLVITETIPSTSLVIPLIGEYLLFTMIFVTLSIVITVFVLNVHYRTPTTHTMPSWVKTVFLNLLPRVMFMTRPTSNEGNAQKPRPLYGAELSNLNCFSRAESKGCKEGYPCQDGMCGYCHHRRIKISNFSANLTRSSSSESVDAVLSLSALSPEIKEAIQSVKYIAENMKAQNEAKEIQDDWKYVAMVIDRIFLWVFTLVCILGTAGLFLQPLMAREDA
T2 sequence (P12392 21-495): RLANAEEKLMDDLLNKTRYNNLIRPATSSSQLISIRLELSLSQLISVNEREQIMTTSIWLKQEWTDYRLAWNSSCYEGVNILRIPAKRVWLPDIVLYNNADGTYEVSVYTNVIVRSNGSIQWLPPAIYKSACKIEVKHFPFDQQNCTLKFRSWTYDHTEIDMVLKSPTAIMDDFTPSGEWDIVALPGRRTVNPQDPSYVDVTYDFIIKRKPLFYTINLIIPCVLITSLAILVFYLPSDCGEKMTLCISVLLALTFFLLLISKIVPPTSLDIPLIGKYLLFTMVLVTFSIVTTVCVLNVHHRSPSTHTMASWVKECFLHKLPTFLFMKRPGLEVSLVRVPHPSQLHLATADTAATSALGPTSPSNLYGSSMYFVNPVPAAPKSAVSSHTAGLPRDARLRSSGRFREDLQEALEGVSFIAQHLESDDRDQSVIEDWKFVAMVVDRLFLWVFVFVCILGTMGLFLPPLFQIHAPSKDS
T2 sequence (Q8BMN3 31-464 partner): as the sequence (Q8BMN3 31-464, further chain) above
T1 sequence (P32297 32-505): as the sequence (P32297 32-505) above
T1 sequence (P12392 21-495): as the sequence (P12392 21-495) above

c1cncc(C2CC3CCN2CC3)c1 (racemic) [TC 2429]
locomotor activity (α6^L9′S mice): stimulated locomotor activity | locomotor suppression (WT mice): did not produce locomotor suppression | %10 μM nic, Total DA release (nAChRs): 49.0% and 73.40% and 71.00% | Rmax (±SEM), Total DA release (nAChRs): 8.68 ± 1.25 and 12.87 ± 0.37 and 11.86 ± 0.41

CC(=O)OCC[N+](C)(C)C [ACh, acetylcholine]
voltage-clamped responses (α4Yβ2 receptors): 200-400 pA | EC50 (α3β4 receptors): 165 ± 9 µM | EC50 (α3β4β3 receptors): 230 ± 22 µM

N#Cc1cc2c(cc1[N+](=O)[O-])=NC(=O)C(=O)N=2 [CNQX, 6-cyano-7-nitroquinoxaline-2,3-dione]
effect on increased channel/membrane noise [1]: No effect | block of whole-cell responses to 1 μM nicotine [2]: unaffected

CO[C@H]1CC=C2CCN3CCC4=C(CC(=O)OC4)[C@]23C1 [DHβE, dihydro-β-erythroidine]
effect on increased channel/membrane noise [1]: completely eliminated | block of whole-cell responses to 1 μM nicotine [2]: 100%

[K+] [K^+]
GABA release stimulated by 20 mM K^+ [3]: 8.31 ± 0.34 and 8.24 ± 0.45 and 8.43 ± 0.50

CCN1C[C@]2(COC(=O)c3ccccc3N3C(=O)C[C@H](C)C3=O)CC[C@H](OC)[C@@]34[C@@H]5C[C@H]6[C@H](OC)[C@@H]5[C@](O)(C[C@@H]6OC)[C@@](O)([C@@H](OC)[C@H]23)[C@@H]14 [MLA, methyllycaconitine]
block of whole-cell responses to 1 μM nicotine [2]: 0%

CNCC/C=C/c1cccnc1 [TC 2403]
locomotor activity (α6^L9′S mice): slight locomotor activation | %10 μM nic, MII-sensitive DA release (α6* nAChRs [4]): 28.83% | agonist character at α6β2* for DA release (vs. nicotine) (α6* nAChRs [4]): no activity | Rmax (±SEM), MII-sensitive DA release (α6* nAChRs [4]; ST/OT, WT): 0.47 ± 0.2 | EC50 (α6* nAChRs [4]; ST/OT, WT, read-out: EC50 (±SEM), MII-sensitive DA release): 0.06 ± 0.18 µM | %10 μM nic, MII-resistant DA release (α4β2* (non-α6) nAChRs): 81.78% and 81.48% and 90.64% | Rmax (±SEM), MII-resistant DA release (α4β2* (non-α6) nAChRs): 7.26 ± 0.29 and 9.3 ± 0.33 | agonist character at α4β2 for DA release (vs. nicotine) (α4β2* (non-α6) nAChRs): full agonist (vs. nicotine) | Rmax (±SEM), MII-resistant DA release (α4β2* (non-α6) nAChRs; ST/OT, WT): 12.32 ± 0.26 | EC50 (α4β2* (non-α6) nAChRs; ST/OT, WT): 2.85 ± 0.35 µM | EC50 (α4β2* (non-α6) nAChRs): 3.53 µM and 4.03 µM | %10 μM nic, MII-sensitive DA release (α6* nAChRs [5]): 44.85% and 33.01% | Rmax (±SEM), MII-sensitive DA release (α6* nAChRs [5]): 4.83 ± 0.15 and 3.43 ± 0.32 | agonist character at the αCtxMII-sensitive receptor (α6* nAChRs [5]): partial agonist | EC50 (α6* nAChRs [5]; read-out: EC50 (±SEM), MII-sensitive DA release): 0.19 µM and 0.1 µM | %10 μM nic, Total DA release (nAChRs): 74.11% and 54.47% and 51.19% | Rmax (±SEM), Total DA release (nAChRs): 10.72 ± 0.61 and 10.57 ± 0.74 | Rmax (±SEM), Total DA release (nAChRs; ST/OT, WT): 12.37 ± 0.93 | EC50 (nAChRs; ST/OT, WT): 2.36 ± 0.56 µM | EC50 (nAChRs): 0.7 µM and 0.82 µM | potency and efficacy for DA release, α6^L9′S relative to WT (nAChRs; striatal synaptosomes): slightly more potent and had equivalent efficacy

NC1=N[C@H](O)[C@H]2[C@H]3O[C@]4(O)O[C@@H]([C@@H](O)[C@@]2(N1)[C@@H]4O)[C@]3(O)CO [TTX, tetrodotoxin]
effect on increased channel/membrane noise [1]: No effect | block of whole-cell responses to 1 μM nicotine [2]: unaffected

C/C1=C/C(=O)O[C@@H]2C[C@@H](CC[C@H](C)/C=C\CC1)O[C@@](O)([C@@H]1CSC(=O)N1)C2 [latrunculin B]
effect on actin-containing membrane protrusions (N2a cells): destroyed

CNC1(C)C2CCC(C2)C1(C)C (stereo not drawn) [mecamylamine]
effect of antagonist pre-injection on nicotine-stimulated locomotor response (α6^L9′S mice): strong block of the locomotor response

COc1cc2nc(N3CCN(C(=O)c4ccco4)CC3)nc(N)c2cc1OC [prazosin]
effect of antagonist pre-injection on nicotine-stimulated locomotor response (α6^L9′S mice): no change was found

CCN1CCCC1CNC(=O)c1cc(S(N)(=O)=O)ccc1OC (stereo not drawn) [sulpiride]
effect of antagonist pre-injection on nicotine-stimulated locomotor response (α6^L9′S mice): partially inhibited | baseline firing of VTA DA cells (VTA DA neurons): modestly increase baseline firing | effect on nicotine-induced increases in firing (VTA DA neurons): did not affect

COC(=O)[C@@H]1[C@H]2C[C@H]3c4[nH]c5ccccc5c4CCN3C[C@@H]2CC[C@@H]1O [yohimbine]
effect of antagonist pre-injection on nicotine-stimulated locomotor response (α6^L9′S mice): no change was found

picrotoxin
effect on increased channel/membrane noise [1]: No effect

α-conotoxin MII [αCtxMII]
effect on increased channel/membrane noise [1]: completely eliminated | inhibition of nicotine responses in LC neurons (LC neurons (α6* nAChRs)): sensitive to αCtxMII | block of whole-cell responses to 1 μM nicotine [2]: > 90% | persistence of block after washout [2]: 30 min
